According to ChEMBL document CHEMBL1201862, “PubChem BioAssay data set” (2004):
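Where inhibition never reached the appropriate level, the endpoint shown equals the highest concentration tested. Otherwise, values were interpolated linearly from a five-concentration, 48-hour dose response in 96-well plates. Abbreviation: GI50, concentration required for 50% inhibition of growth.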 Activity calls are given as the source filed them. No stated cut-off is given here; in the data, active = GI50 up to about 1.1 µM and inactive = higher.

How the values were obtained:
Assay in all cases: DTP human tumour cell line panel, 48 h
[1] = tested on: 786-0
[2] = tested on: A498
[3] = tested on: A549
[4] = tested on: ACHN
[5] = tested on: BT-549
[6] = tested on: CAKI-1
[7] = tested on: CCRF-CEM
[8] = tested on: COLO 205
[9] = tested on: DU-145
[10] = tested on: EKVX
[11] = tested on: HCC 2998
[12] = tested on: HCT-116
[13] = tested on: HCT-15
[14] = tested on: HL-60
[15] = tested on: HOP-62
[16] = tested on: HOP-92
[17] = tested on: HT-29
[18] = tested on: Hs-578T
[19] = tested on: IGROV-1
[20] = tested on: K562
[21] = tested on: KM12
[22] = tested on: LOX IMVI
[23] = tested on: M14
[24] = tested on: MCF7
[25] = tested on: MDA-MB-231
[26] = tested on: MDA-MB-435
[27] = tested on: MDA-N
[28] = tested on: MOLT-4
[29] = tested on: Malme-3M
[30] = tested on: NCI-H226
[31] = tested on: NCI-H23
[32] = tested on: NCI-H460
[33] = tested on: NCI-H522
[34] = tested on: NCI/ADR-RES
[35] = tested on: OVCAR-3
[36] = tested on: OVCAR-4
[37] = tested on: OVCAR-5
[38] = tested on: OVCAR-8
[39] = tested on: PC-3
[40] = tested on: RPMI-8226
[41] = tested on: RXF 393
[42] = tested on: SF-268
[43] = tested on: SF-295
[44] = tested on: SF-539
[45] = tested on: SK-MEL-28
[46] = tested on: SK-MEL-2
[47] = tested on: SK-MEL-5
[48] = tested on: SK-OV-3
[49] = tested on: SN12C
[50] = tested on: SNB-19
[51] = tested on: SNB-75
[52] = tested on: SW-620
[53] = tested on: T47D
[54] = tested on: TK-10
[55] = tested on: U-251
[56] = tested on: UACC-257
[57] = tested on: UACC-62
[58] = tested on: UO-31

`CC(=O)NNc1nc(C)c(C(/C=C/c2cccc([N+](=O)[O-])c2)=N/NC(=S)NN)s1` was tested. Which GI50 [1] did it give?
The GI50 was > 100 µM (inactive).

What about the GI50 [2] of the same molecule?
Its GI50 is > 100 µM (inactive).

What about the GI50 [3] of the same molecule?
The GI50 was > 100 µM (inactive).

And the GI50 [4]?
The GI50 was > 100 µM (inactive).

What about the GI50 [5] of the same molecule?
The GI50 was > 100 µM (inactive).

And the GI50 [6]?
The GI50 was > 100 µM (inactive).

What about the GI50 [7] of the same molecule?
The GI50 was > 100 µM (inactive).

What about the GI50 [8] of the same molecule?
Its GI50 is > 100 µM (inactive).

What about the GI50 [9] of the same molecule?
Its GI50 is > 100 µM (inactive).

What about the GI50 [10] of the same molecule?
Its GI50 is 52.1 µM (inactive).

And the GI50 [11]?
Its GI50 is > 100 µM (inactive).

And the GI50 [12]?
The GI50 was > 100 µM (inactive).

And the GI50 [13]?
The GI50 was greater than 100 µM.

And the GI50 [14]?
Its GI50 is > 100 µM (inactive).

What about the GI50 [15] of the same molecule?
The GI50 was 91 µM (inactive).

And the GI50 [16]?
The GI50 was > 100 µM (inactive).

And the GI50 [17]?
Its GI50 is > 100 µM (inactive).

And the GI50 [18]?
Its GI50 is > 100 µM (inactive).

What about the GI50 [19] of the same molecule?
Its GI50 is > 100 µM (inactive).

What about the GI50 [20] of the same molecule?
Its GI50 is > 100 µM (inactive).

And the GI50 [21]?
Its GI50 is > 100 µM (inactive).

And the GI50 [22]?
The GI50 was > 100 µM (inactive).

What about the GI50 [23] of the same molecule?
Its GI50 is > 100 µM (inactive).

What about the GI50 [24] of the same molecule?
The GI50 was > 100 µM (inactive).

What about the GI50 [25] of the same molecule?
The GI50 was > 100 µM (inactive).

What about the GI50 [26] of the same molecule?
Its GI50 is > 100 µM (inactive).

And the GI50 [27]?
The GI50 was > 100 µM (inactive).

And the GI50 [28]?
Its GI50 is > 100 µM (inactive).

What about the GI50 [29] of the same molecule?
Its GI50 is > 100 µM (inactive).

And the GI50 [30]?
The GI50 was > 100 µM (inactive).

What about the GI50 [31] of the same molecule?
Its GI50 is > 100 µM (inactive).

And the GI50 [32]?
Its GI50 is > 100 µM (inactive).

And the GI50 [33]?
Its GI50 is > 100 µM (inactive).

And the GI50 [34]?
The GI50 was > 100 µM (inactive).

What about the GI50 [35] of the same molecule?
The GI50 was > 100 µM (inactive).

What about the GI50 [36] of the same molecule?
The GI50 was > 100 µM (inactive).

What about the GI50 [37] of the same molecule?
The GI50 was > 100 µM (inactive).

What about the GI50 [38] of the same molecule?
The GI50 was > 100 µM (inactive).

And the GI50 [39]?
Its GI50 is > 100 µM (inactive).

What about the GI50 [40] of the same molecule?
The GI50 was > 100 µM (inactive).

What about the GI50 [41] of the same molecule?
The GI50 was > 100 µM (inactive).

What about the GI50 [42] of the same molecule?
The GI50 was > 100 µM (inactive).

And the GI50 [43]?
The GI50 was > 100 µM (inactive).

What about the GI50 [44] of the same molecule?
The GI50 was > 100 µM (inactive).

What about the GI50 [45] of the same molecule?
Its GI50 is > 100 µM (inactive).

And the GI50 [46]?
The GI50 was > 100 µM (inactive).

What about the GI50 [47] of the same molecule?
Its GI50 is > 100 µM (inactive).

What about the GI50 [48] of the same molecule?
Its GI50 is > 100 µM (inactive).

And the GI50 [49]?
Its GI50 is > 100 µM (inactive).

And the GI50 [50]?
Its GI50 is > 100 µM (inactive).

What about the GI50 [51] of the same molecule?
The GI50 was > 100 µM (inactive).

And the GI50 [52]?
Its GI50 is > 100 µM (inactive).

What about the GI50 [53] of the same molecule?
The GI50 was > 100 µM (inactive).

What about the GI50 [54] of the same molecule?
The GI50 was > 100 µM (inactive).

What about the GI50 [55] of the same molecule?
Its GI50 is > 100 µM (inactive).

And the GI50 [56]?
Its GI50 is > 100 µM (inactive).

What about the GI50 [57] of the same molecule?
The GI50 was > 100 µM (inactive).

And the GI50 [58]?
Its GI50 is > 100 µM (inactive).
